Test results reported in patent US8163870B2, “Channel forming peptides” (Kansas State University Research Foundation, priority 2000, dated 2012).

How the values were obtained:
MDCK monolayers = test: FITC-dextran permeability assay; assay type: cell-based, canine; conditions: SEQ ID NO. 27 100 μM; EDTA 3 mM in hypotonic Ringer
Protocol: Confluent MDCK cell monolayers were washed once with Ringer solution and placed in one of three treatments containing FITC-conjugated dextran (Sigma Chemical Co.) in the apical compartment; 1, Ringer solution in the apical and basolateral compartments; 2, Ringer solution apical and basolateral with SEQ ID No. 27 (also referred to herein as NC-1059) (100 μM) in the apical solution; 3, EDTA (3 mM) in Ringer solution that had been diluted 1:1 with distilled water in both the apical and basolateral compartments. Monolayers are incubated at 37° C. for 60 minutes and the solution in the basolateral well sampled to quantify fluorescently labeled dextran. Monolayers are then washed with Ringer solution to remove peptide, EDTA, and dextran, placed in tissue culture medium and returned to the incubator for two days before the assay was conducted again.
FITC-dextran permeability assay. Epithelial permeability to uncharged solutes of various sizes was assessed with monolayers grown on Snapwell tissue culture inserts as described above. […] Monolayers were incubated at 37° C. for 60 minutes and the solution in the basolateral well was sampled to quantify fluorescently labeled dextran. […]

[1] = test system: tight junction-associated proteins (actin, ZO-1, occludin) in MDCK monolayers; test: Confocal microscopy, immunolocalization of tight-junction associated proteins; assay type: cell-based, canine; conditions: peptides 100 μM; EDTA 6 mM and hypotonic Ringer
Protocol: Confocal microscopy. Immunoreactivity to antibodies raised against tight-junction associated proteins was assessed by confocal microscopy (Zeiss, Thornwood, N.Y.). Samples for visualization were prepared from monolayers used in electrophysiological studies. After removal from Ussing chambers, monolayers were washed in Ringer solution and fixed overnight in 10% neutral buffered formalin. Monolayers were washed 3 times in PBS, permeabilized with 0.1% Triton X-100 in PBS, blocked with goat serum, and then exposed to primary antibody in a 1:500 dilution (rat anti-ZO-1, cat# MAB120, Chemicon, Temecula, Calif. or rabbit anti-occludin, cat.# 71-1500; Zymed, San Francisco, Calif.) for 1 hour at room temperature. After being washed 3 times in PBS, FITC-conjugated goat anti-rat (cat #AP136F, Chemicon) or goat anti-rabbit (cat #FI-1000; Vector Laboratories, Burlingame, Calif.) secondary antibodies were employed (1:1000 dilution) with exposure occurring for 1 hour at room temperature. TRITC-labeled phalloidin (0.1 mg/ml in methanol; Sigma Chemical Co.) was used for F-actin localization was applied concurrently with the secondary antibody. A KrAr laser was used to excite the fluorophores. Filter sets used for fluorescein were BP485/20 nm for excitation and BP515-540 nm for emission and for rhodamine BP530-585 nm for excitation and LP590 nm for emission.

MDCK cells = assay type: cell-based, canine; conditions: peptide at 500 μM
Excerpt: Cell culture: MDCK cells were a generous gift of Dr. Lawrence Sullivan (Kansas University Medical Center, Kansas City, Kans.). T84 cells were obtained from Dr. Daniel Devor (University of Pittsburgh, Pittsburgh, Pa.). MDCK and T84 cells were maintained with similar culture procedures. The culture medium was a 1:1 mixture of DMEM and Ham's F-12 (Gibco BRL, Grand Island, N.Y.) supplemented with 5% heat inactivated fetal bovine serum (BioWhittaker, Walkersville, Md.), and 1% penicillin and streptomycin (Gibco BRL). Cells were grown in plastic culture flasks in a humidified environment with 5% CO2 at 37° C. and passaged every 5-7 days. For Ussing chamber experiments, cells were plated on 1.13 cm^2 permeable supports (Snapwell™, Costar®, Cambridge, Mass.) at a density of approximately 1×10^6 cells/well and incubated in DMEM/F-12 supplemented with FBS and antibiotics (changed every other day) for 2-3 weeks prior to being mounted in modified Ussing flux chambers.
To form monolayers, the cells were plated onto the upper surface of a permeable membrane that forms the bottom of a plastic well. Two types were used. One was the Transwell™ insert (Costar®, Cambridge, Mass.) supported in a six-well tissue culture plate and the other type was the Snapwell™ (Costar®, Cambridge, Mass.). During incubation, the medium was replaced at 48-72 hour intervals. Confluent monolayers formed within 72 hours. Experiments were performed on the monolayers 6-9 days after the initial plating. Net fluid secretion responses were optimal after six days.
Solutions: Ringer solution was made fresh daily. The final concentration (in mM) was 120 NaCl, 25 NaHCO3 3.3 KH2HPO4, 0.8 K2HPO4, 1.2 MgCl2, 1.2 CaCl2, (290±2 mOsmol). All components of the Ringer solution were from Sigma (St. Louis, Mo.).
(§1) Epithelial electrical measurements: Transepithelial ion transport was evaluated in a modified Ussing chamber (Model DCV9, Navicyte, San Diego, Calif.). The Ussing chamber's fluid resistance compensation was completed in Ringer solution (see below). For electrical measurements cell monolayers were bathed in Ringer solution maintained at 37° C. and continuously bubbled with 5% CO2:95% O2. The transepithelial membrane potential (Vte) was clamped to zero and the transepithelial short circuit current (Isc), an indicator of net ion transport, was measured continuously with a voltage clamp apparatus (Model 558C, University of Iowa, Department of Bioengineering, Iowa City, Iowa). Data were digitally acquired at 1 Hz with a Macintosh computer (Apple Computer, Cuppertino, Calif.) using Aqknowledge software (ver. 3.2.6, BIOPAC Systems, Santa Barbara, Calif.) with an MP100A-CE interface.
as §1, with “Transepithelial” for “Epithelial electrical measurements: Transepithelial”, “(composition (in mM) was 120 NaCl, 25 NaHCO3 3.3 KH2HPO4, 0.8 K2HPO4, 1.2 MgCl2, 1.2 CaCl2).” for “(see below).”
MDCK cell monolayers (in the presence of 1-EBIO to maximize basolateral membrane K^+ conductance) were exposed on the apical aspect to escelating peptide concentrations. Maximal change in Isc (relative to the Isc prior to peptide exposure) was recorded following each increment in apical peptide concentration. […]

[2] = Chemical cross-linking (BS3) and SDS-PAGE, oligomeric state of peptide in solution; assay type: physicochemical; conditions: SDS-PAGE
Protocol: Chemical cross-linking: In order to visualize the oligomeric state of the peptide in solution a chemical cross-linking protocol was developed. Calculated amounts of each peptide were weighted out and dissolved in 1 mL of distilled water to make 1 mM stock solutions. A 100 mM stock solution of the chemical crosslinking reagent Bis[Sulfosuccinimidyl]suberate, BS^3, (Pierce Chemical Co., Rockford, Ill.) was prepared in dimethyl sulfoxide (DMSO). […] Sample were allowed to sit at room temperature for 15 minutes. 1-6 μL of 100 mM BS^3 was then added to the previously prepared peptide such that the crosslinking reagent was present in 20-fold excess. The final volume for each reaction was 100 μL. […] Each sample was then vacuum dried. Later dry samples were re-dissolved in 60 μL of distilled water along with 60 μL of a 2×-tricine SDS sample buffer (Novex, San Diego). All samples were then boiled at 100° C. for 5 minutes. 5 μL aliquots of each SDS boiled sample was then loaded into separate lanes of pre-cast, 1.0 mm, 10 well, 10-20% tricine gels (Novex, San Diego). Pre-made Novex tricine-SDS buffer was used in the electrophoresis. The reference well contained 1 μL of MultiMark® multi-colored molecular weight standard (Novex, San Diego). The electrophoresis was carried out at a constant 110 Volts for 90 minutes. […]

cultured CF monolayers = test: Glutathione transport in cultured CF monolayers; assay type: cell-based

**Q.** Which “permeation of 20 kDa FITC-dextran conjugate” value (MDCK monolayers) does the source give for `O=C(O)CN(CCN(CC(=O)O)CC(=O)O)CC(=O)O` [EDTA] here?
**A.** highest level of permeation

**Q.** What about the “distribution of actin, occludin and ZO-1 immunoreactivity” value [1] of the same compound?
**A.** profound changes in localization of the peri-junctional actin ring, as well as the distribution of ZO-1

**Q.** For “PARVGLGITT VLTMTTQSSG SRAKKKK (PARVGLGITTVLTMTTQSSGSRAKKKK; Modified Homo sapiens) [SEQ ID No. 2, reference compound]”, which “Activity profile in MDCK cells” value (MDCK cells) is on record?
**A.** 12.5 at 500 μM μA/cm2

**Q.** What about the “aggregation state in solution” value [2] of the same compound?
**A.** only trace amounts of aggregates higher than trimer

**Q.** What about the glutathione transport (cultured CF monolayers) of the same compound?
**A.** active but to a much lesser extent
